{"source": "patent US20100173956A1", "about": "“Use of Quaternary Pyridinium Salts as Vasoprotective Agents” (Pharmena Spolka Akcyjna (Pharmena S.A.), priority 2004, published 2010)", "key": {"platelet-rich thrombi": {"system": "platelet-rich thrombi", "assay": "Thrombolytic activity in rats with extracorporal circulation (method of Gryglewski)", "format": "in vivo, Wistar rats", "settings": "for thrombolytic response: single injection, fall in weight of thrombi, maximum response", "method": "Thrombolytic activity of quaternary pyridinium salts was assessed using original method of Gryglewski et al., (Gryglewski R J, Korbut R, Ocetkiewicz A, Stachura J. In vivo method for quantitation for anti-platelet potency of drugs. Naunyn Schmiedebergs Arch Pharmacol 1978; 302:25-30), the scheme of which was shown on FIG. 1.\n(§1) Wistar rats of body weight 300-350 g were anaesthetised (thiopental 30 mg kg^−1 i.p.) and heparinised (unfractionated heparin. 800 i.u. kg^−1 i.v.). Arterial blood pressure was measured from cannulated right carotid artery, and extracorporal circulation was established between left carotid artery and left jugular vein. A collagen strip from rabbit tendon of Achilles was superfused with arterial blood in extracorporal circulation at a rate of 1.5 ml min^−1 and its weight was continuously monitored by an auxotonic Harvard transducer.\n(§2) During the initial 20-30 min of superfusion the strip was gaining in weight by 80-120 mg because of deposition of platelet-rich thrombi and then in control conditions stayed unchanged during next 3-5 hrs. Thrombolytic response was detected by a fall in weight of a thrombi. Arterial blood pressure was also monitored, so this model enabled the analysis of thrombolytic and hypotensive action of a compound (FIG. 1)."}, "[1]": {"system": "6-keto-PGF1α (stable PGI2 metabolite)", "assay": "Assay of 6-keto-PGF1α in arterial blood plasma (enzyme immunoassay)", "format": "in vivo, Wistar rats", "method": "(§3) The analysis of the thrombolytic response in this experimental set-up was complemented by the assay of 6-keto-PGF1α, TXB2 and PGE2 in arterial blood plasma. For this purpose blood samples (500 μl) were collected in Eppendorff tubes with indomethacin to yield its final concentration of 10 μM, and EDTA to yield the final concentration of 1 mM. Then, the blood samples were spinned for 5 min at 2.000×g. Plasma samples were stored at −70° C. The prostanoids were assayed using the enzyme immunoassay kits (Cayman Chemical Co, Ann Arbor, Mich.)."}, "neutrophils": {"system": "neutrophils", "assay": "Latex-induced activation of neutrophils", "format": "cell-based"}, "[2]": {"assay": "Arterial blood pressure monitoring (hypotensive action)", "format": "in vivo, Wistar rats", "method": "as §1, §2"}, "PGE2": {"system": "PGE2", "assay": "Assay of PGE2 in arterial blood plasma (enzyme immunoassay)", "format": "in vivo, Wistar rats", "settings": "30 mg/kg i.v.", "method": "as §3"}, "platelets": {"system": "platelets", "assay": "Collagen-induced aggregation in platelet-rich plasma in vitro", "format": "cell-based", "settings": "for effect on collagen-induced aggregation of platelets (FIG. 9): FIG. 9, (1 mg/ml)"}, "[3]": {"assay": "Anti-atherogenic effect in dyslipidemic patients (plasma TC, TG, HDL)", "format": "in vivo", "settings": "30 mg orally three times a day", "method": "The anti-atherogenic effect of MNA^+ was investigated in 15 dyslipidemic patients. The enrollment criteria were: high level of TG (≧250 mg/dl) and low level of HDL (≦35 mg/dl for male, ≦45 mg/dl for female). The mean age of the patients was 61.4 (range 45-81 years). The patients were treated with MNA^+ for 2 weeks. The MNA^+ was administered orally, three times a day, one capsule (30 mg MNA^+) after meal. The plasma levels of TC, TG, HDL were measured at baseline and after 2 weeks of therapy. The level of LDL was measured in those cases, where it was possible (due to high TG level)."}, "TXB2": {"system": "TXB2", "assay": "Assay of TXB2 in arterial blood plasma (enzyme immunoassay)", "format": "in vivo, Wistar rats", "settings": "30 mg/kg i.v.", "method": "as §3"}}, "note": "“Also recorded” adds a separate entry of the source."}
{"compound": "1-Methyl-3-acetylpyridinium salt [MAP^+]", "values": [{"measurement": "thrombolytic response (in words)", "setting": "platelet-rich thrombi; 30 mg/kg i.v.", "result": "comparable to that induced by 30 mg/kg of MNA^+"}, {"measurement": "change of 6-keto-PGF1α level / release of PGI2 (in words)", "setting": "[1]; 30 mg/kg i.v.", "result": "associated with the release of PGI2"}]}
{"compound": "Cn1cc(C(N)=O)ccc1=O", "note": "[2-PYR, 1-methyl-2-pyridone-5-carboxyamide]", "values": [{"measurement": "duration of thrombolytic response (transient)", "setting": "platelet-rich thrombi; 30 mg/kg i.v.", "result": "< 15", "unit": "min"}, {"measurement": "thrombolytic response (in words)", "setting": "platelet-rich thrombi; 30 mg/kg i.v.", "result": "Lack of thrombolytic response; also recorded: failed to induce a significant thrombolytic response; also recorded: did not display a significant thrombolytic activity"}, {"measurement": "thrombolytic response", "setting": "platelet-rich thrombi; 30 mg/kg i.v.", "result": "< 10", "unit": "%"}]}
{"compound": "c1ccc2c(c1)[I+]c1ccccc1-2", "note": "[DPI, reference compound]", "values": [{"measurement": "effect on latex-induced activation of neutrophils (FIG. 10)", "setting": "neutrophils", "result": "abrogated"}]}
{"compound": "C[n+]1cccc(C(=O)NCO)c1", "note": "[MNAF^+, 1-methyl-N′-(hydroxymethyl)nicotinamide]", "values": [{"measurement": "thrombolytic response (in words)", "setting": "platelet-rich thrombi; 30 mg/kg i.v.", "result": "comparable to that induced by 30 mg/kg of MNA^+"}]}
{"compound": "C[n+]1cccc(C(N)=O)c1", "note": "[MNA^+, 1-methylnicotinamide]", "values": [{"measurement": "fall in arterial blood pressure", "setting": "[2]; 30 mg/kg i.v., during thrombolysis", "result": "not associated with a fall in arterial blood pressure"}, {"measurement": "hypotension", "setting": "[2]; 30-300 mg/kg", "result": "did not cause hypotension"}, {"measurement": "change of PGE2 level in arterial plasma", "setting": "PGE2", "result": "neither TXB2 nor PGE2 levels changed significantly"}, {"measurement": "effect on collagen-induced aggregation of platelets (FIG. 9)", "setting": "platelets", "result": "Lack of effect; also recorded: did not inhibit"}, {"measurement": "effect on collagen-induced aggregation in platelet-rich plasma", "setting": "platelets; in vitro, up to concentration of 10 mM", "result": "not affected"}, {"measurement": "inhibition of latex-induced activation of neutrophils", "setting": "neutrophils; 1 mM", "result": "did not inhibit"}, {"measurement": "effect on latex-induced activation of neutrophils (FIG. 10)", "setting": "neutrophils", "result": "Lack of effect; also recorded: did not inhibit"}, {"measurement": "thrombolytic response", "setting": "platelet-rich thrombi; 30 mg/kg i.v.", "result": "42±4", "unit": "%"}, {"measurement": "duration of thrombolytic response", "setting": "platelet-rich thrombi; 30 mg/kg i.v., response remained at approximately the same level over the observation period", "result": "2 to 3", "unit": "h"}, {"measurement": "dose dependence of thrombolysis", "setting": "platelet-rich thrombi; 3-30 mg/kg i.v.", "result": "concentration-dependent thrombolysis"}, {"measurement": "dose of maximum thrombolytic response", "setting": "platelet-rich thrombi; i.v., 3-30 mg/kg tested", "result": 30, "unit": "mg/kg"}, {"measurement": "thrombolytic response in the presence of indomethacin", "setting": "platelet-rich thrombi; indomethacin 5 mg/kg", "result": "abrogated"}, {"measurement": "change of TC level, baseline to 2 weeks", "setting": "[3]", "result": "−15.7", "unit": "%"}, {"measurement": "change of TG level, baseline to 2 weeks", "setting": "[3]", "result": "−47.1", "unit": "%"}, {"measurement": "increase of HDL level, baseline to 2 weeks", "setting": "[3]", "result": 36.2, "unit": "%"}, {"measurement": "TC plasma level after 2 weeks", "setting": "[3]; 15 dyslipidemic patients, baseline 267.0 mg/dl", "result": 225.1, "unit": "mg/dL"}, {"measurement": "HDL plasma level after 2 weeks", "setting": "[3]; baseline 39.2 mg/dl", "result": 53.4, "unit": "mg/dL"}, {"measurement": "TG plasma level after 2 weeks", "setting": "[3]; baseline 472.6 mg/dl", "result": 249.9, "unit": "mg/dL"}, {"measurement": "TG/HDL ratio after 2 weeks", "setting": "[3]; baseline 13.9", "result": 5.8}, {"measurement": "change of 6-keto-PGF1α level / release of PGI2 (in words)", "setting": "[1]; 30 mg/kg i.v.", "result": "concomitant increase in level of 6-keto-PGF1α"}, {"measurement": "level of 6-keto-PGF1α in arterial plasma", "setting": "[1]; 30 mg/kg i.v., 15 minutes after injection, before injection 104±7 pg/ml", "result": "460 ± 58", "unit": "pg/mL"}, {"measurement": "plateau level of 6-keto-PGF1α in arterial plasma", "setting": "[1]; 30 mg/kg i.v., for at least one hour", "result": "around 400 pg/ml"}, {"measurement": "release of 6-keto-PGF1α in the presence of indomethacin", "setting": "[1]; indomethacin 5 mg/kg", "result": "abrogated"}, {"measurement": "change of TXB2 level in arterial plasma", "setting": "TXB2", "result": "neither TXB2 nor PGE2 levels changed significantly"}]}
{"compound": "COc1cc(C(C)=O)ccc1O", "note": "[apocynin, reference compound]", "values": [{"measurement": "effect on latex-induced activation of neutrophils (FIG. 10)", "setting": "neutrophils", "result": "abrogated"}]}
{"compound": "CC(=O)Oc1ccccc1C(=O)O", "note": "[aspirin, reference compound]", "values": [{"measurement": "effect on collagen-induced aggregation of platelets (FIG. 9)", "setting": "platelets", "result": "abrogated"}]}
{"compound": "NC(=O)c1cccnc1", "note": "[nicotinamide]", "values": [{"measurement": "thrombolytic response (in words)", "setting": "platelet-rich thrombi; 30 mg/kg i.v.", "result": "Lack of thrombolytic response; also recorded: failed to induce a significant thrombolytic response"}, {"measurement": "thrombolytic response", "setting": "platelet-rich thrombi; 30 mg/kg i.v.", "result": "9±0.6", "unit": "%"}, {"measurement": "thrombolytic response (in words)", "setting": "platelet-rich thrombi; 30 mg/kg i.v., listed as Nicotinamide", "result": "did not display a significant thrombolytic activity"}, {"measurement": "change of 6-keto-PGF1α level / release of PGI2 (in words)", "setting": "[1]; 30 mg/kg i.v.", "result": "did not increase"}]}
{"compound": "O=C(O)c1cccnc1", "note": "[nicotinic acid]", "values": [{"measurement": "thrombolytic response (in words)", "setting": "platelet-rich thrombi; 30 mg/kg i.v.", "result": "Lack of thrombolytic response; also recorded: failed to induce a significant thrombolytic response; also recorded: did not display a significant thrombolytic activity"}, {"measurement": "thrombolytic response", "setting": "platelet-rich thrombi; 30 mg/kg i.v.", "result": "5±0.9", "unit": "%"}, {"measurement": "change of 6-keto-PGF1α level / release of PGI2 (in words)", "setting": "[1]; 30 mg/kg i.v.", "result": "did not increase"}]}
{"compound": "C[n+]1cccc(C(=O)[O-])c1", "note": "[trigonelline]", "values": [{"measurement": "thrombolytic response (in words)", "setting": "platelet-rich thrombi; 30 mg/kg i.v.", "result": "Lack of thrombolytic response; also recorded: failed to induce a significant thrombolytic response; also recorded: did not display a significant thrombolytic activity"}, {"measurement": "thrombolytic response", "setting": "platelet-rich thrombi; 30 mg/kg i.v.", "result": "did not produce any thrombolytic response"}]}
